According to patent US20240208992A1, “MACROCYCLES AS CFTR MODULATORS” (Idorsia Pharmaceuticals Ltd, priority 2021, published 2024):

Target: human F508del-CFTR (Homo sapiens, UniProt P13569, DEL508-508)
Assay: F508del-CFTR cell surface expression (corrector activity), DiscoveRx ß-galactosidase complementation chemiluminescence assay in recombinant U2OS cell line;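 note: U2OS cells co-expressing ProLink-tagged F508del-CFTR and a membrane-anchored enzyme acceptor, where more surface CFTR restores β-galactosidase activity measured by chemiluminescence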
Conditions: for EC50: EC50, F508del-CFTR cell surface expression; for Emax: U2OS
[1] = U2OS cell line, 16h compound incubation, geomean values
[2] = in relation to the Emax of the corrector lumacaftor (=100%), U2OS cell line, 16h compound incubation, arithmetic mean values

Sequence of human F508del-CFTR (P13569 with tags, fused parts or gaps DEL508-508): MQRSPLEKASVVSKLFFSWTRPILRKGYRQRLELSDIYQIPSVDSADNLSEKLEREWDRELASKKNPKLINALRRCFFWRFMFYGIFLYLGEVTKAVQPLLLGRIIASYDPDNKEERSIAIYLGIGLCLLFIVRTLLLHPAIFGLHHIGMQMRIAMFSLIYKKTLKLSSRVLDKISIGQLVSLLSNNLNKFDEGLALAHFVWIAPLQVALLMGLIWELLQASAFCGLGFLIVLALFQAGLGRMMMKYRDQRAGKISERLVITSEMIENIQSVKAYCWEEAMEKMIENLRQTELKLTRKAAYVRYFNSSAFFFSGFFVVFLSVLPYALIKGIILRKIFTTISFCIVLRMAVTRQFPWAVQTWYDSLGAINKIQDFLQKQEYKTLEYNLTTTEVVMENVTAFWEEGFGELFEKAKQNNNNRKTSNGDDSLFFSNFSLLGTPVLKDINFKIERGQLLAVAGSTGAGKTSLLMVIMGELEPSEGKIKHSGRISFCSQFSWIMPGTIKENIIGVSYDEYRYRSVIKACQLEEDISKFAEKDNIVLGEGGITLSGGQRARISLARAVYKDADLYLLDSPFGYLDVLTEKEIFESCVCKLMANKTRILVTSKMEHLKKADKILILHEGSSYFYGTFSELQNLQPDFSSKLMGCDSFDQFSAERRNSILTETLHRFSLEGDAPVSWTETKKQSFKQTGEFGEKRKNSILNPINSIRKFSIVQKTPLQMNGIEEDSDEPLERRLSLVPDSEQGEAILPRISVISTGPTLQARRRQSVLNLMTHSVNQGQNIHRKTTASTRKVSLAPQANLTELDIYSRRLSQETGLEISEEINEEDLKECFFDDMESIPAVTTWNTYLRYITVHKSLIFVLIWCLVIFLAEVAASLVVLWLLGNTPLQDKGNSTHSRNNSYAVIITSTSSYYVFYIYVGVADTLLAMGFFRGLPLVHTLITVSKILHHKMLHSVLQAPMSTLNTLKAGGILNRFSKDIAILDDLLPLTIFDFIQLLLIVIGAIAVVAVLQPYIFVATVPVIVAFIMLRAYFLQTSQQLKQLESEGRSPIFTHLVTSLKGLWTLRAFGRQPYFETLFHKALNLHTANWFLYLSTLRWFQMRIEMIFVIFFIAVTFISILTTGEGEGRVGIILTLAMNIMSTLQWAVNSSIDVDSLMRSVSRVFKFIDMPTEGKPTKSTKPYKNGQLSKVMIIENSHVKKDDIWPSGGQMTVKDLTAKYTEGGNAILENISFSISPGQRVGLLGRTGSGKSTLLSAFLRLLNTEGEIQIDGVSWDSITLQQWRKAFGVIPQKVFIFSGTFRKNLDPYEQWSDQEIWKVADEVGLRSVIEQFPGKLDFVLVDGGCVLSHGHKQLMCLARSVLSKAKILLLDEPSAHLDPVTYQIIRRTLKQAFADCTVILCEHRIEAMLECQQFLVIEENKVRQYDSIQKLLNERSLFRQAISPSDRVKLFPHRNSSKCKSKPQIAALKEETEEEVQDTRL

SMILES | EC50 [1] | Emax [2] | other results
CC(C)C[C@H]1C(=O)N2CCCC[C@@H]2C(=O)N[C@H](Cc2ccccc2)COc2cnc3ccccc3c2C(=O)N[C@H](C(=O)NCCc2ccc(-c3ncccn3)cc2)CC(=O)N1C [Example 122, (9S,13S,19aR,22R)-22-benzyl-13-isobutyl-12-methyl-7,11,14,20-tetraoxo-N-(4-(pyrimidin-2-yl)phenethyl)-7,8,9,10,11,12,13,14,17,18,19,19a,20,21,22,23-hexadecahydro-16H-pyrido[2′,1′:6,7][1]oxa[4,7,10,14]tetraazacycloheptadecino[17,16-c]quinoline-9-carboxamide] | 324 nM | 292% | –
Cc1cc(CCNC(=O)[C@@H]2CC(=O)N(C)[C@@H](CC(C)C)C(=O)N(C[C@@H]3CCCC(C)(C)O3)CC(=O)N[C@H](Cc3ccccc3)COc3cnc4ccccc4c3C(=O)N2)on1 [Example 707, (3S,7S,13R)-13-benzyl-9-(((S)-6,6-dimethyltetrahydro-2H-pyran-2-yl)methyl)-7-isobutyl-6-methyl-N-(2-(3-methylisoxazol-5-yl)ethyl)-1,5,8,11-tetraoxo-1,2,3,4,5,6,7,8,9,10,11,12,13,14-tetradecahydro-[1]oxa[4,7,10,14]tetraazacycloheptadecino[17,16-c]quinoline-3-carboxamide] | – | – | EC50 (U2OS cells, 16h compound incubation, geomean values): 502 nM; Emax (in relation to Emax of corrector lumacaftor (=100%), arithmetic mean values): 305%
CC(C)C[C@H]1C(=O)N2CCOC[C@@H]2C(=O)N[C@H](Cc2ccccc2)COc2cnc3ccccc3c2C(=O)N[C@H](C(=O)NCCc2c(F)cccc2F)CC(=O)N1C [Example 68, (9S,13S,19aR,22R)-22-benzyl-N-(2,6-difluorophenethyl)-13-isobutyl-12-methyl-7,11,14,20-tetraoxo-7,8,9,10,11,12,13,14,16,17,19,19a,20,21,22,23-hexadecahydro-[1,4]oxazino[3′,4′:6,7][1]oxa[4,7,10,14]tetraazacycloheptadecino[17,16-c]quinoline-9-carboxamide] | 448 nM | 331% | –
COc1cccc(CCNC(=O)[C@@H]2CC(=O)N(C)[C@@H](CC(C)C)C(=O)N(C[C@H]3CCCCO3)CC(=O)N[C@H](Cc3ccccc3)COc3cccc(OC)c3C(=O)N2)c1 [Example 311, (3R,9S,13S)-3-benzyl-9-isobutyl-16-methoxy-N-(3-methoxyphenethyl)-10-methyl-5,8,11,15-tetraoxo-7-(((R)-tetrahydro-2H-pyran-2-yl)methyl)-2,3,4,5,6,7,8,9,10,11,12,13,14,15-tetradecahydrobenzo[p][1]oxa[4,7,10,14]tetraazacycloheptadecine-13-carboxamide] | 454 nM | 127% | –
CC(C)C[C@H]1C(=O)N(C)CC(=O)N[C@H](Cc2ccccc2)COc2ccc(F)cc2C(=O)N[C@H](C(=O)NCCc2ccc3c(c2)OCO3)CC(=O)N1C [Example 234, (3R,9S,13S)-N-(2-(benzo[d][1,3]dioxol-5-yl)ethyl)-3-benzyl-17-fluoro-9-isobutyl-7,10-dimethyl-5,8,11,15-tetraoxo-2,3,4,5,6,7,8,9,10,11,12,13,14,15-tetradecahydrobenzo[p][1]oxa[4,7,10,14]tetraazacycloheptadecine-13-carboxamide] | 471 nM | 110% | –
COc1cc(CCNC(=O)[C@@H]2CC(=O)N(C)[C@@H](CC(C)C)C(=O)N(C)[C@H](Cc3nc(C(F)(F)F)no3)C(=O)N[C@H](Cc3ccccc3)COc3cc(C)c4c(ccc[n+]4[O-])c3C(=O)N2)on1 [Example 982, (3S,7S,10R,13R)-13-benzyl-7-isobutyl-3-((2-(3-methoxyisoxazol-5-yl)ethyl)carbamoyl)-6,9,17-trimethyl-1,5,8,11-tetraoxo-10-((3-(trifluoromethyl)-1,2,4-oxadiazol-5-yl)methyl)-1,2,3,4,5,6,7,8,9,10,11,12,13,14-tetradecahydro-[1]oxa[4,7,10,14]tetraazacycloheptadecino[16,17-f]quinoline 18-oxide] | – | – | EC50 (U2OS cells, 16h compound incubation, geomean of several measurements): 236 nM; Emax (in relation to the Emax of the corrector lumacaftor (=100%), U2OS cells, 16h compound incubation, arithmetic mean): 530%
